Measurements as given in patent US8426437B2, “Pyrroloquinoline derivatives and their use as protein kinases inhibitors” (Pierre Fabre Medicament, priority 2005, dated 2013).
Where a name gives a salt, the structure may show the parent alone.

Columns and labels:
PIM-1 = biological target: T1, PIM-1 (Homo sapiens, UniProt P11309); test: Inhibition of kinase PIM-1 (Kinase-Glo); assay type: biochemical; details: PIM-1 0.625 μg/ml, 10 μM ATP, forty minutes at 30° C.
T1 construct: purchased Upstate 14-573
Procedure: Protein PIM-1 (Upstate #14-573 batch 25864U) is incubated at a concentration of 0.625 μg/ml in a buffer containing 8 mM of MOPS/NaOH pH7, 0.2 mM EDTA, 5 mM MgAc (Sigma #229768), 0.01% Triton Tx100, in the presence of 70 μM of peptide substrate S6 Kinase/Rsk2 (Upstate #12-243), and 10 μM of ATP.
The dilution buffer for PIM-1 is as follows: 20 mM MOPS/NaOH pH7, 1 mM EDTA, 5% glycerol, 0.01% Brij35, 0.1% 2-mercapto, 1 mg/ml BSA
The compound to be tested is first added to the enzyme to give a reaction volume of 50 μl. The dilution of the compounds of the invention is distributed so as to obtain a scale of final concentrations between 10 nM and 30 μM.
After incubation of the reaction mixture for forty minutes at 30° C., the level of ATP that remains is assayed using the Kinase-Glo Luminescent Kinase Assay (Promega #V6712) according to the conditions recommended by the supplier. The luminescence induced is read in a plate reader (Envision-Perkin Elmer).

RET = biological target: T2, RET (Homo sapiens, UniProt P07949); test: Inhibition of RET kinase activity, recombinant RET method (Kinase-Glo); assay type: biochemical; details: RET 2 μg/ml, poly-EY4 substrate, 20 μM ATP, two hours at 30° C.
T2 construct: purchased Upstate 14-570MG
Method in brief: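 Recombinant RET at 2 μg/ml in 20 mM MOPS/NaOH pH 7.0, 1 mM EDTA, 5% glycerol, 0.01% Brij35, 0.1% 2-mercaptoethanol, 1 mg/ml BSA; compounds 10 nM–30 μM final.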

T1 sequence (P11309 whole entry): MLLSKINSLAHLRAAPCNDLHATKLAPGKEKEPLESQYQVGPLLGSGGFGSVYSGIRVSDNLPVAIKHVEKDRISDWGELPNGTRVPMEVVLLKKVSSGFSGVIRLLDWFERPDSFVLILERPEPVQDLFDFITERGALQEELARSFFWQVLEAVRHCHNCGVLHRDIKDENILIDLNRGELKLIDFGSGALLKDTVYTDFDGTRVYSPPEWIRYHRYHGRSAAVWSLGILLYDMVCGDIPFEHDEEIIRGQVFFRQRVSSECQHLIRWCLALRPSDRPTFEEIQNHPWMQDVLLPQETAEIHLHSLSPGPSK
T2 sequence (P07949 29-1114): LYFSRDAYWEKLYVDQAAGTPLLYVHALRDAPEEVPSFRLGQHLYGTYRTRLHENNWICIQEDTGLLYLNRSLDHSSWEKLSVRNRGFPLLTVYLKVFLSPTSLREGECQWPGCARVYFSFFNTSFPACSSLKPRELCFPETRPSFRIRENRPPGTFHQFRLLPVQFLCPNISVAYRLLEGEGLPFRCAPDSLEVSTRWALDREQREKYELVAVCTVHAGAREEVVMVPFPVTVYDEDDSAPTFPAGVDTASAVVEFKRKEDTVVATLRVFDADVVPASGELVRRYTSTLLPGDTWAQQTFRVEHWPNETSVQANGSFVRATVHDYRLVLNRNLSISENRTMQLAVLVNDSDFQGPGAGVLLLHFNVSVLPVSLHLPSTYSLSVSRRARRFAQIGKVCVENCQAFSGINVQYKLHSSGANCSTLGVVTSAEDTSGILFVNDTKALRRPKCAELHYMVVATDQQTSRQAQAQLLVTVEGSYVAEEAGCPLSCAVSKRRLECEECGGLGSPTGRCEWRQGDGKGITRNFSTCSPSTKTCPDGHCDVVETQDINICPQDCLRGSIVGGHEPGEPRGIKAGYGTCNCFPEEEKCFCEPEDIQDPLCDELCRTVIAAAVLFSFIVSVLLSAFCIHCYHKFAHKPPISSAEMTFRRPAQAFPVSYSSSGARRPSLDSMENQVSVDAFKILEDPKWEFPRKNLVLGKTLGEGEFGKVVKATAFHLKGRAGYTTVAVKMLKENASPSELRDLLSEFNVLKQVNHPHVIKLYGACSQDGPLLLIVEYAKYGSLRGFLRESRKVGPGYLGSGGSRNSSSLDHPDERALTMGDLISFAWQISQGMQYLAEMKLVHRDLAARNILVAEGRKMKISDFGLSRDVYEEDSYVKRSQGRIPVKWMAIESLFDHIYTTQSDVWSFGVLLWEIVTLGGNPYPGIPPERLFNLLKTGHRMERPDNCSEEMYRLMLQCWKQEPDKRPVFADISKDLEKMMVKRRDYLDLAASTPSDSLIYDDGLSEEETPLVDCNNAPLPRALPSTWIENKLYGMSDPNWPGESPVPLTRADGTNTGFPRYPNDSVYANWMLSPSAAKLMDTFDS

Row | IC50 (PIM-1) [nM] | IC50 (RET) [nM] | SMILES
1 | 10000 to 100000 | 1000 to 10000 | CCOC(=O)c1c[nH]c2c(=O)[nH]c3ccc(N)cc3c12 [Compound 64, 8-Amino-4-oxo-4,5-dihydro-3H-pyrrolo[2,3-c]quinoline-1-ethyl carboxylate]
2 | 1000 to 10000 | 1000 to 10000 | CCOC(=O)c1c[nH]c2c(=O)[nH]c3ccc(-c4ccnc(N5CCN(C(C)=O)CC5)n4)cc3c12 [Compound 268, 8-[2-(4-Acetyl-piperazin-1-yl)-pyrimidin-4-yl]-4-oxo-4,5-dihydro-3H-pyrrolo[2,3-c]quinoline-1-ethyl carboxylate]
3 | 10000 to 100000 | 100 to 1000 | O=C(OCC1CCOC1)c1c[nH]c2c(=O)[nH]c3ccc(S(=O)(=O)NC4CCNCC4)cc3c12 (centres unmarked) [Compound 118, 4-Oxo-8-(piperidin-4-ylsulfamoyl)-4,5-dihydro-3H-pyrrolo[2,3-c]quinoline-1-methyltetrahydrofuran-3-yl carboxylate]
4 | 10000 to 100000 | 100 to 1000 | CCOC(=O)c1c[nH]c2c(=O)[nH]c3ccc(-c4ccnc(N)n4)cc3c12 [Compound 261, 8-(2-Amino-pyrimidin-4-yl)-4-oxo-4,5-dihydro-3H-pyrrolo[2,3-c]quinoline-1-ethyl carboxylate]
5 | 1000 to 10000 | 1000 to 10000 | CCOC(=O)c1c[nH]c2c(=O)[nH]c3ccc(-c4ccc(Cl)nc4)cc3c12 [Compound 259, 8-(6-Chloro-pyridin-3-yl)-4-oxo-4,5-dihydro-3H-pyrrolo[2,3-c]quinoline-1-ethyl carboxylate]
6 | 1000 to 10000 | 100 to 1000 | CCOC(=O)c1c[nH]c2c(=O)[nH]c3ccc(SCc4ccccc4)cc3c12 [Compound 222, 8-Benzylsulfanyl-4-oxo-4,5-dihydro-3H-pyrrolo[2,3-c]quinoline-1-ethyl carboxylate]
7 | 1000 to 10000 | 100 to 1000 | CCOC(=O)c1c[nH]c2c(=O)[nH]c3ccc(-c4cccc(CNC)c4)cc3c12 [Compound 241, 8-(3-Methylaminomethyl-phenyl)-4-oxo-4,5-dihydro-3H-pyrrolo[2,3-c]quinoline-1-ethyl carboxylate]
8 | 1000 to 10000 | 1000 to 10000 | CCOC(=O)c1c[nH]c2c(=O)[nH]c3ccc(-c4ccnc(N(C)CCN(C)C)n4)cc3c12 [Compound 269, 8-{2-[(2-Dimethylamino-ethyl)-methyl-amino]-pyrimidin-4-yl}-4-oxo-4,5-dihydro-3H-pyrrolo[2,3-c]quinoline-1-ethyl carboxylate formate]
9 | 1000 to 10000 | 1000 to 10000 | CCOC(=O)c1c[nH]c2c(=O)[nH]c3ccc(-c4ccnc(N(C)C)n4)cc3c12 [Compound 262, 8-(2-Dimethylamino-pyrimidin-4-yl)-4-oxo-4,5-dihydro-3H-pyrrolo[2,3-c]quinoline-1-ethyl carboxylate]
10 | 1000 to 10000 | 100 to 1000 | CCOC(=O)c1c[nH]c2c(=O)[nH]c3ccc(-c4ccnc(NC)n4)cc3c12 [Compound 263, 8-(2-Methylamino-pyrimidin-4-yl)-4-oxo-4,5-dihydro-3H-pyrrolo[2,3-c]quinoline-1-ethyl carboxylate formate]
11 | 100 to 1000 | 100 to 1000 | CCOC(=O)c1c[nH]c2c(=O)[nH]c3ccc(-c4ccc(N)cc4)cc3c12 [Compound 244, 8-(4-Aminophenyl)-4-oxo-4,5-dihydro-3H-pyrrolo[2,3-c]quinoline-1-ethyl carboxylate]
12 | 1000 to 10000 | 1000 to 10000 | CCOC(=O)c1c[nH]c2c(=O)[nH]c3ccc(/C=C/c4ccccc4)cc3c12 [Compound 70, 4-Oxo-8-styryl-4,5-dihydro-3H-pyrrolo[2,3-c]quinoline-1-ethyl carboxylate]
13 | 1000 to 10000 | < 100 | O=C(OC1CCCC1)c1c[nH]c2c(=O)[nH]c3ccc(S(=O)(=O)NC4CCNCC4)cc3c12 [Compound 116, 4-Oxo-8-(piperidin-4-ylsulfamoyl)-4,5-dihydro-3H-pyrrolo[2,3-c]quinoline-1-cyclopentyl carboxylate]
